Results on four molecules are retold here after paper PMC3288053 (PLoS ONE, 2012).

Like-named read-outs stand apart in the source and are kept apart here.

The subject of one assay is CHO-K1/GLUT4 cells. Nature of the assay: Quantification of GLUT4 translocation ratio (IN Cell Analyzer 1000). The following applies: for EC50: serum-starved cells, read-out: EC50, membrane GLUT4 (GLUT4 translocation). It counts as cell-based. Here is the method: CHO-K1 cells are transfected with pEGFPN1-GLUT4-myc plasmid using Lipofectamine 2000, and subsequently screened with G418 (800 µg/ml). The CHO-K1/GLUT4 stable cell line is obtained by picking up clones.
CHO-K1/GLUT4 cells are seeded into 96-well plate. After cells reached 100% confluence, F12 medium is changed to 3T3-L1 medium and incubated for 2 days. 8-hour serum starvation later, cells are stimulated with insulin for 5 minutes, fixed with 3.7% formaldehyde for 15 minutes, and labeled with anti-myc monoclonal antibody and secondary antibody (Alexa Fluor 647 conjuncted anti-mouse antibody). Fluorescence pictures were obtained by IN Cell Analyzer 1000 Instrument (GE Healthcare) with the same exposure time. The basic unit comprises several core components including a Nikon microscope and a high-resolution CCD camera. Membrane-located GLUT4 is represented by the intensity of red fluorescence (Alex fluor 647) and normalized by the intensity of green fluorescence (GLUT4-EGFP), which is assigned to the total GLUT4 [46].

The target of the next assay is T1, TC-PTP (Homo sapiens, UniProt P17706).
T1 construct: pGEX4T-1-TC-PTP1–288; GST (N); made in house; host or cells: E. coli BL21 (DE3)
Put plainly: PTP enzyme inhibition assay (pNPP substrate). It counts as biochemical. The following applies: PTPs 0.3 µM, pNPP 5 mM, 25°C; NI: No inhibition at 100 µM. As to the method: (§1) The enzymatic activities of the recombinant PTPs are measured at 25°C using pNPP as substrate. The initial velocities of enzymatic reactions are determined by continuously measuring the absorbance at 405 nm every 15 s using a microplate spectrophotometer (Bio-Rad). […] To determine the inhibition type, each concentration of Rut (0, 50 and 75 µM) is incubated with PTP1B (0.3 µM) in reaction buffer (50 mM HEPES, pH7.0, 1 mM EDTA, and 100 mM NaCl) for 10 min and the reactions are initiated by different concentrations of pNPP (0.5–10 mM). The inhibition type is determined using double-reciprocal plots. In determination of the selectivity of Rut against PTPs, the result is referred as no inhibition when 100 µM Rut inhibits no enzyme activity. The same reaction systems are designed for all PTPs including PTP1B.

For the next assay, the target named is T2, LAR (Homo sapiens, UniProt P10586).
T2 construct: pGEX2T-LAR1282–1888; GST (N); made in house; host or cells: E. coli BL21 (DE3)
Put plainly: PTP enzyme inhibition assay (pNPP substrate). It counts as biochemical. The following applies: PTPs 0.3 µM, pNPP 5 mM, 25°C; NI: No inhibition at 100 µM; read-out: IC50 LAR. Here is the method:
as §1

A further assay concerns the target T3, CD45 (Homo sapiens, UniProt P08575).
T3 construct: pGEX2T-CD45_560–1256; GST (N); made in house; host or cells: E. coli BL21 (DE3)
Nature of the assay: PTP enzyme inhibition assay (pNPP substrate). The following applies: PTPs 0.3 µM, pNPP 5 mM, 25°C; NI: No inhibition at 100 µM. It counts as biochemical. Here is the method:
as §1

The next assay addresses T4, PTP1B (Homo sapiens, UniProt P18031).
T4 construct: pGEX4T-1-PTP1B1–321; GST (N); made in house; host or cells: E. coli BL21 (DE3)
T4 sequence (P18031 1-321): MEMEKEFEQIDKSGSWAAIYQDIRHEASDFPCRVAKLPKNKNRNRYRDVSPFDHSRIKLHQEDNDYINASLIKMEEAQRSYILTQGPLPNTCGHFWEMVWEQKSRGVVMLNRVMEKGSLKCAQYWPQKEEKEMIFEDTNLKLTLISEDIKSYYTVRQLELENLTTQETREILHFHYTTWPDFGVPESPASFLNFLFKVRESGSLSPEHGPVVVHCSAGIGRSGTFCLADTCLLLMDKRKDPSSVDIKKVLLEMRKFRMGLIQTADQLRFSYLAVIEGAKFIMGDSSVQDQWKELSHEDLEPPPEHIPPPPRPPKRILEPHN
Nature of the assay: PTP enzyme inhibition assay (pNPP substrate). It counts as biochemical. The following applies: PTPs 0.3 µM, pNPP 5 mM, 25°C; NI: No inhibition at 100 µM. Here is the method: as §1

The next assay addresses T5, PTPα (Homo sapiens, UniProt P18433).
T5 construct: pGEX2T-PTPα182–803; GST (N); made in house; host or cells: E. coli BL21 (DE3)
Put plainly: PTP enzyme inhibition assay (pNPP substrate). It counts as biochemical. To be noted: PTPs 0.3 µM, pNPP 5 mM, 25°C; NI: No inhibition at 100 µM; read-out: IC50 PTPα. As to the method: as §1

The test system of a further assay is 3T3-L1 adipocytes. Nature of the assay: 2-Deoxyglucose uptake in 3T3-L1 adipocytes. It counts as cell-based. To be noted: insulin 17 nM; Rut 5–25 µM, C2 10 µM. Here is the method:
3T3-L1 adipocytes are fully differentiated (the 10th day after MDI stimulation) and seeded into 24-well plate. After incubation with compounds in serum-free medium containing 0.5% BSA for 8 hours, medium is changed to Krebs buffer containing […] insulin and incubated for 30 minutes. In the last 5 minutes, cells are incubated with 2-[^3H]-deoxy-D-glucose. The glucose uptake is stopped by ice-cold PBS, and the cells are then lysed with 0.1% Triton. Finally the radioactivity is calculated by a scintillation counter. Cytochalasin B is used to measure nonspecific uptake, and the value is subtracted from all the data. Radioactivity is normalized by total protein concentration that is measured by BCA kit.

In assay [1] the target is T6, Retinoid X receptor α ligand-binding domain (RXRα-LBD), His-tagged, purified (human, UniProt P19793 229-458).
T6 construct: also called hRXRα-LBD; source: E. coli BL21 (DE3), purified (His-tag purification, Novagen instructions)
T6 sequence: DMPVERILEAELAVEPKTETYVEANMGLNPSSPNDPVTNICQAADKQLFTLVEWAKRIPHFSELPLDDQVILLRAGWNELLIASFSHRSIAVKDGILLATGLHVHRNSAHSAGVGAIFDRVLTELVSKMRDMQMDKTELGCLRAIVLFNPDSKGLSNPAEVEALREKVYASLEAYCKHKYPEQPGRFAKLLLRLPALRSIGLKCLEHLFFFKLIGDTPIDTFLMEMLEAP
Nature of the assay: SPR; Biacore 3000; purified SRC1(613-773) immobilised on a CM5 chip by amine coupling; different concentrations of PPARγ-LBD or RXRα-LBD injected at 20 µL/min for 60 s, dissociation 120 s; running buffer 10 mM HEPES, 150 mM NaCl, 3 mM EDTA, 0.005% P20, pH 7.4; also 1 µM LBD pre-incubated for 1 h with Rut (16.8-100 µM). To be noted: both partners purified.

The target in assay [2] is T7, Peroxisome proliferator-activated receptor γ ligand-binding domain PPARγ-LBD(202-477), His-tagged, purified (human, UniProt P37231-2 202-477).
T7 construct: also called hPPARγ-LBD; source: E. coli BL21 (DE3), purified (His-tag purification, Novagen instructions)
T7 sequence (looked up): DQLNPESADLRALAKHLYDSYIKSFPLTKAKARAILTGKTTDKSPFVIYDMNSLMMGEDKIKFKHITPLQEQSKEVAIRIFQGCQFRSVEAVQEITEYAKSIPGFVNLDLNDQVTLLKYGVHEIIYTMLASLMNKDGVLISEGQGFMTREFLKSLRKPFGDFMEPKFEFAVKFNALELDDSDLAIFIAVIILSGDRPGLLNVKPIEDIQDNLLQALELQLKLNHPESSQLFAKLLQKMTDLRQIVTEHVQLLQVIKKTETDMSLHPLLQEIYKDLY
The assay is described as above. The following applies: both partners purified.

T3 sequence (P08575 610-1306 limits assumed): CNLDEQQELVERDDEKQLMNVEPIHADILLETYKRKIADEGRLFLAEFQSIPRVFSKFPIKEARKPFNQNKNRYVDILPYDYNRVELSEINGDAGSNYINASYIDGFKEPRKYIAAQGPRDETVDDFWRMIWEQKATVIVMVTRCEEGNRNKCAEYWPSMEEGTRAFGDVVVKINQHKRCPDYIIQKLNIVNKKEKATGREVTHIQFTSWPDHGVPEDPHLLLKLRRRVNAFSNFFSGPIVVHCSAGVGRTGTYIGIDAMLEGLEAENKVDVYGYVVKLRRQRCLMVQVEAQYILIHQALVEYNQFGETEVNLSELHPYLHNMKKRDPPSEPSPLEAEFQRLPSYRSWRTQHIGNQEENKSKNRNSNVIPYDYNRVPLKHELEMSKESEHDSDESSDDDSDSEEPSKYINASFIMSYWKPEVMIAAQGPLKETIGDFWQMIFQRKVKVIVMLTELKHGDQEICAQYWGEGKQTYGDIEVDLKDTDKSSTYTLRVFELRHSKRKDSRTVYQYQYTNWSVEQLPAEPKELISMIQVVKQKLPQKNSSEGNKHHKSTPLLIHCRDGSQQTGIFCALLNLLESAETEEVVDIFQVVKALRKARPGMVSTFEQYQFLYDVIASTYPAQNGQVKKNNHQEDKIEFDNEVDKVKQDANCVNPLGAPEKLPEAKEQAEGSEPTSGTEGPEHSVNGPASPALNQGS
T1 sequence (P17706 1-288): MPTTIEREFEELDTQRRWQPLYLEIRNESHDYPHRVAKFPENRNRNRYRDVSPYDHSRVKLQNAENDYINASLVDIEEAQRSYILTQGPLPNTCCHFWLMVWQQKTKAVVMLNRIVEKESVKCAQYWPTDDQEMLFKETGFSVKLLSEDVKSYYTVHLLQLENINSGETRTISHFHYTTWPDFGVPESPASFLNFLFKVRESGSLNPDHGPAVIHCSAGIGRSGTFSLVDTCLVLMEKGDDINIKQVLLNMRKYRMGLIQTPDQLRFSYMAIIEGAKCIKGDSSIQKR
T2 sequence (P10586 1301-1907 limits assumed): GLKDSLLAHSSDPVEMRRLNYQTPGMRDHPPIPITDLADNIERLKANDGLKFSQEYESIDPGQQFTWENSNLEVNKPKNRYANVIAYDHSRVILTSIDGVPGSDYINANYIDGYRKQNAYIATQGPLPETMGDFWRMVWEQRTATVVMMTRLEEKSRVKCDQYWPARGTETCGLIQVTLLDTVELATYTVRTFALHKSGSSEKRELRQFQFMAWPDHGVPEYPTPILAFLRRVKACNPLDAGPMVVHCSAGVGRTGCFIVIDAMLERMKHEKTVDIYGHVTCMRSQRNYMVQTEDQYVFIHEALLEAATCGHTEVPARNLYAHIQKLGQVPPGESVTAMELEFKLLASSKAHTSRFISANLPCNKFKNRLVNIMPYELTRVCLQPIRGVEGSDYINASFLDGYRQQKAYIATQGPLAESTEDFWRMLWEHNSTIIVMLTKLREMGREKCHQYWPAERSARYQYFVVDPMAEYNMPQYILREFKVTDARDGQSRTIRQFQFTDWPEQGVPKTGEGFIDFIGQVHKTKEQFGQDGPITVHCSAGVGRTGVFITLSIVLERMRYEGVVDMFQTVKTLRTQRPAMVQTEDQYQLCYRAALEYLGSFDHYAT

Regarding `COC[C@H]1OC(=O)c2coc3c2[C@@]1(C)C1=C(C3=O)[C@@H]2CCC(=O)[C@@]2(C)C[C@H]1OC(C)=O` [wortmannin, reference compound], the “effect on Rut or insulin-stimulated GLUT4 translocation” value in the assay with CHO-K1/GLUT4 cells (wortmannin 1 µM, Rut 20 µM or insulin 170 nM) is “completely inhibits”.
On to “insulin: insulin used as stimulus in cellular GLUT4 translocation assay”, for which, in the assay on CHO-K1/GLUT4 cells (IN Cell 1000 analyzer based system), the “insulin-stimulated GLUT4 translocation over the basal” value is recorded as “around 1.5 fold”. The EC50 – broadly, the concentration at which the effect is half-maximal – with CHO-K1/GLUT4 cells (insulin 5 min) stood at 100 nM.
As for pervanadate [reference compound], the EC50 with CHO-K1/GLUT4 cells (pervanadate 30 min) was found to be 51000 nM. The IC50 (usually the point on the concentration scale where inhibition reaches its midpoint) against TC-PTP turned out to be 36 nM; on LAR, 26 nM; on CD45, 6 nM; on PTP1B, 15 nM; on PTPα, 59 nM. The insulin-induced glucose uptake result in the assay with 3T3-L1 adipocytes is given as “increase the insulin-stimulated glucose uptake”.

B1: Steroid receptor coinducer-1 fragment SRC1(613-773), His-tagged, purified (domain or fragment, human, UniProt Q15788 613-773, looked up)
chain: LHNNDRLSDGDSKYSQTSHKLVQLLTTTAEQQLRHADIDTSCKDVLSCTGTSNSASANSSGGSCPSSHSSLTERHKILHRLLQEGSPSDITTLSVEPDKKDSASTSVSVTGQVQGNSSIKLELDASKKKESKDHQLLRYLLDKDEKDLRSTPNLSLDDVKV
notes: plasmid pET15b-SRC1(613-773); Human cDNA is stated as template for the two-hybrid SRC1(613-773) clone; source: E. coli BL21 (DE3), purified (His-tag purification, Novagen instructions)
As for B1, in [1], binding was put at a Kd of 1160 nM. The binding result in [2] was “binds”.
